Data set [1] deals with K-562, chronic myeloid leukemia. The data set is described as follows: Proliferation assay (MTS, 72 h), K-562. Type of data set: cell-based, human. The text has this:
(§1) Human cancer cells used in this manuscript, namely Capan-1, HCT-116, NCI-H460, LN-229, HL-60, K-562, and Z-138, were acquired from the American Type Culture Collection (ATCC, Manassas, VA, USA), while the DND-41 cell line was purchased from the Deutsche Sammlung von Mikroorganismen und Zellkulturen (DSMZ Leibniz-Institut, Braunschweig, Germany). Culture media were purchased from Gibco Life Technologies, Merelbeke, Belgium, and supplemented with 10% fetal bovine serum (HyClone, Cytiva, Marlborough, MA, USA). Vincristine and docetaxel, which were used as the reference inhibitors, were purchased from Selleckchem (Munich, Germany). Stock solutions were prepared in DMSO.
(§2) Adherent cell lines LN-229, HCT-116, and NCI-H460 and Capan-1 cells were seeded at a density between 500 and 1500 cells per well, in 384-well tissue culture plates (Greiner, Kremsmünster, Austria). After overnight incubation, the cells were treated with seven different concentrations of the test compounds, ranging from 100 to 0.006 µM.
(§3) Suspension cell lines HL-60, K-562, Z-138, and DND-41 were seeded at densities ranging from 2500 to 5500 cells per well in 384-well culture plates containing the test compounds at the same concentration points. The cells were incubated for 72 h with the compounds and were then analyzed using the CellTiter 96® AQueous One Solution Cell Proliferation Assay (MTS) reagent (Promega, Madison, WI, USA) according to the manufacturer’s instructions. […] The compounds were tested in two independent experiments.

Data set [2] concerns DND-41, acute lymphoblastic leukemia. The data set is described as follows: Proliferation assay (MTS, 72 h), DND-41. In kind it is cell-based, human.
Source text: as §1, §2, §3

Data set [3] concerns HCT-116, colorectal carcinoma. The data set is described as follows: Proliferation assay (MTS, 72 h), HCT-116. Type of data set: cell-based, human.
Source text: as §1, §2, §3

Data set [4] relates to HL-60, acute myeloid leukemia. The data set is described as follows: Proliferation assay (MTS, 72 h), HL-60. In kind it is cell-based, human.
Source text: as §1, §2, §3

The next data set concerns NCI-H460, lung carcinoma. The data set is described as follows: Proliferation assay (MTS, 72 h), NCI-H460. Type of data set: cell-based, human.
Source text: as §1, §2, §3

A further data set has as its system LN-229, glioblastoma. As to the kind of experiment: Proliferation assay (MTS, 72 h), LN-229. Type of data set: cell-based, human.
Source text: as §1, §2, §3

Data set [5] relates to Capan-1, pancreatic adenocarcinoma. The data set is described as follows: Proliferation assay (MTS, 72 h), Capan-1. In kind it is cell-based, human.
Source text: as §1, §2, §3

Data set [6] has as its system Z-138, non-Hodgkin lymphoma. The data set is described as follows: Proliferation assay (MTS, 72 h), Z-138. Type of data set: cell-based, human.
Source text: as §1, §2, §3

Like-named read-outs stand apart in the source and are kept apart here.

On to `CCCCCCn1c(/N=C/c2ccc(N(CC)CC)cc2O)nc2ccccc21` [Compound 44, (E)-5-(Diethylamino)-2-(((1-hexyl-1H-benzo[d]imidazol-2-yl)imino)methyl)phenol], for which the melting point (as a rule, the temperature of the solid-liquid transition) lay in the range of 201 to 204 °C. For the same molecule, in [1] (Homo sapiens, K562), the IC50 (commonly the concentration at which inhibition is half-maximal) is over 100 µM. In data set [2] (Homo sapiens, DND41), this molecule returned an IC50 of over 100 µM. For the same molecule, in data set [3] (Homo sapiens, HCT-116), the IC50 was over 100 µM. This molecule gave an IC50 in data set [4] (Homo sapiens, HL-60) of 83.9 µM. The half-inhibitory concentration (IC50) in the data set on NCI-H460, lung carcinoma (Homo sapiens, NCI-H460) was over 100 µM. Also, the IC50 with LN-229, glioblastoma (Homo sapiens, LN-229) is over 100 µM. Moreover, in data set [5] (Homo sapiens, CAPAN-1), the IC50 was over 100 µM. For the same molecule, the IC50 in data set [6] (Homo sapiens, Z-138) was over 100 µM.

`CCN(CC)c1ccc(/C=N/c2nc3ccccc3n2C)c(O)c1` [Compound 35, (E)-5-(Diethylamino)-2-(((1-methyl-1H-benzo[d]imidazol-2-yl)imino)methyl)phenol]: the IC50 was over 100 µM in [1] (Homo sapiens, K562); over 100 µM in data set [2] (Homo sapiens, DND41); over 100 µM in data set [3] (Homo sapiens, HCT-116); over 100 µM in data set [4] (Homo sapiens, HL-60); over 100 µM in the data set with NCI-H460, lung carcinoma (Homo sapiens, NCI-H460); over 100 µM in the data set with LN-229, glioblastoma (Homo sapiens, LN-229). In addition, the IC50 in data set [5] (Homo sapiens, CAPAN-1) was over 100 µM; in data set [6] (Homo sapiens, Z-138) it was over 100 µM.

Turning to `CCCCCCn1c(N)nc2ccccc21` [Compound 20, 2-amino-1-hexylbenzimidazole], the melting point fell in the range of 245 to 250 °C.

As to `CN(C)c1ccc(/C=N/c2nc3ccccc3n2C)cc1` [Compound 33, (E)-N,N-Dimethyl-4-(((1-methyl-1H-benzo[d]imidazol-2-yl)imino)methyl)aniline], the melting point is 186 to 188 °C. This molecule also yielded an IC50 in [1] (Homo sapiens, K562) of over 100 µM. For the same molecule, the IC50 in data set [2] (Homo sapiens, DND41) was over 100 µM. The molecule also gave an IC50 in [3] (Homo sapiens, HCT-116) of over 100 µM. In data set [4] (Homo sapiens, HL-60), the IC50 was over 100 µM. Moreover, the IC50 in the data set on NCI-H460, lung carcinoma (Homo sapiens, NCI-H460) is over 100 µM. The molecule further came in with an IC50 in the data set on LN-229, glioblastoma (Homo sapiens, LN-229) of over 100 µM. The molecule further displayed an IC50 in [5] (Homo sapiens, CAPAN-1) of over 100 µM. In addition, the IC50 in [6] (Homo sapiens, Z-138) was over 100 µM.

“2-amino-6-cyano-1-isobutylbenzimidazole [Compound 21]”: the half-maximal inhibitory concentration (IC50) is over 100 µM in [1]; over 100 µM in data set [2]; over 100 µM in data set [3]; over 100 µM in data set [4]; 69.2 µM with NCI-H460, lung carcinoma; over 100 µM in the data set on LN-229, glioblastoma. The IC50 in [5] and in data set [6] was over 100 µM throughout.

Regarding `COc1cc([C@@H]2c3cc4c(cc3[C@@H](O[C@@H]3O[C@@H]5CO[C@@H](C)O[C@H]5[C@H](O)[C@H]3O)[C@H]3COC(=O)[C@H]23)OCO4)cc(OC)c1O` [ETP, etoposide, reference compound], the IC50 in data set [1] (Homo sapiens, K562) was 1.77 µM; in data set [2] (Homo sapiens, DND41) it was 2.8 µM; in data set [3] (Homo sapiens, HCT-116), 1.45 µM; in data set [4] (Homo sapiens, HL-60), 0.42 µM; in the data set with NCI-H460, lung carcinoma (Homo sapiens, NCI-H460) it was 3.65 µM; in the data set on LN-229, glioblastoma (Homo sapiens, LN-229) it was 2.4 µM. The IC50 in data set [5] (Homo sapiens, CAPAN-1) was found to be 0.43 µM; in data set [6] (Homo sapiens, Z-138), 0.85 µM.

`CN(C)c1ccc(/C=N/c2nc3ccc(C#N)cc3n2-c2ccccc2)cc1` [Compound 39, (E)-2-((4-(Dimethylamino)benzylidene)amino)-1-phenyl-1H-benzo[d]imidazole-6-carbonitrile] gave a melting point of 247 to 251 °C. This molecule registered an IC50 in data set [1] (Homo sapiens, K562) of over 100 µM. The IC50 in data set [2] (Homo sapiens, DND41) was over 100 µM. Moreover, in [3] (Homo sapiens, HCT-116), the IC50 was over 100 µM. This molecule also came in with an IC50 in data set [4] (Homo sapiens, HL-60) of over 100 µM. Further, the IC50 with NCI-H460, lung carcinoma (Homo sapiens, NCI-H460) is over 100 µM. In the data set with LN-229, glioblastoma (Homo sapiens, LN-229), this molecule registered an IC50 of over 100 µM. In addition, the IC50 in [5] (Homo sapiens, CAPAN-1) was over 100 µM. The same molecule showed an IC50 in [6] (Homo sapiens, Z-138) of over 100 µM.

Turning to “2-amino-1-phenylbenzimidazole [Compound 19]”, the IC50 in data set [1] is over 100 µM; in [2], 98.3 µM; in data set [3], over 100 µM; in data set [4], over 100 µM; in the data set with NCI-H460, lung carcinoma, over 100 µM; in the data set with LN-229, glioblastoma it was over 100 µM. Besides, the IC50 in data set [5] and in data set [6] was over 100 µM each time.

For the molecule `CC(C)Cn1c(/N=C/c2ccc(N(C)C)cc2)nc2ccccc21` [Compound 28, (E)-4-(((1-Isobutyl-1H-benzo[d]imidazol-2-yl)imino)methyl)-N,N-dimethylaniline], the melting point fell in the range of 277 to 279 °C. In data set [1] (Homo sapiens, K562), the IC50 is over 100 µM. In data set [2] (Homo sapiens, DND41), the IC50 was over 100 µM. This molecule also returned an IC50 in data set [3] (Homo sapiens, HCT-116) of 15.2 µM. This molecule yielded an IC50 in [4] (Homo sapiens, HL-60) of over 100 µM. Besides, in the data set on NCI-H460, lung carcinoma (Homo sapiens, NCI-H460), the IC50 was over 100 µM. Moreover, the IC50 in the data set with LN-229, glioblastoma (Homo sapiens, LN-229) was over 100 µM. The molecule also registered an IC50 in data set [5] (Homo sapiens, CAPAN-1) of over 100 µM. The IC50 in [6] (Homo sapiens, Z-138) is over 100 µM.

For the origin of these results see publication PMC10180076, “Novel Biologically Active N-Substituted Benzimidazole Derived Schiff Bases: Design, Synthesis, and Biological Evaluation” (Molecules, 2023).
